Reference: ChEMBL document CHEMBL1201862, “PubChem BioAssay data set” (2004)
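1) Cells in 96-well plates. 2) Compound, 48 h, 5 concentrations. 3) Linear interpolation between surrounding doses. 4) Unreached endpoint = highest concentration. GI50: concentration for 50% inhibition of growth.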 Calls of active or inactive are those of the source. Rule as the data show it: active = GI50 up to about 1.1 µM and inactive = higher.

Tests used:
Assay in all cases: NCI-60 cell line screen, 48 h
ACHN = test system: ACHN
CAKI-1 = test system: CAKI-1
HCC 2998 = test system: HCC 2998
HCT-15 = test system: HCT-15
HOP-62 = test system: HOP-62
HT-29 = test system: HT-29
M14 = test system: M14
MOLT-4 = test system: MOLT-4
Malme-3M = test system: Malme-3M
NCI-H226 = test system: NCI-H226
NCI-H522 = test system: NCI-H522
NCI/ADR-RES = test system: NCI/ADR-RES
PC-3 = test system: PC-3
SF-295 = test system: SF-295
SN12C = test system: SN12C
SNB-19 = test system: SNB-19
SR = test system: SR
UACC-257 = test system: UACC-257
UACC-62 = test system: UACC-62
UO-31 = test system: UO-31

| SMILES | GI50 (ACHN) | GI50 (CAKI-1) | GI50 (HCC 2998) | GI50 (HCT-15) | GI50 (HOP-62) | GI50 (HT-29) | GI50 (M14) | GI50 (MOLT-4) | GI50 (Malme-3M) | GI50 (NCI-H226) | GI50 (NCI-H522) | GI50 (NCI/ADR-RES) | GI50 (PC-3) | GI50 (SF-295) | GI50 (SN12C) | GI50 (SNB-19) | GI50 (SR) | GI50 (UACC-257) | GI50 (UACC-62) | GI50 (UO-31) |
| --- | --- | --- | --- | --- | --- | --- | --- | --- | --- | --- | --- | --- | --- | --- | --- | --- | --- | --- | --- | --- |
| Cc1ccc(C(=O)NC2C(=O)NC(C(C)C)C(=O)N3CCCC3C(=O)N(C)CC(=O)N(C)C(C(C)C)C(=O)OC2C)c2c1Oc1c(c(C(=O)NC3C(=O)NC(C(C)C)C(=O)N4CCCC4C(=O)N(C)CC(=O)N(C)C(C(C)C)C(=O)OC3C)c3nc(-c4ccccc4)c(=O)oc3c1C)N2 (stereo not given) | 0.00515 µM (active) | 0.00948 µM (active) | < 0.001 µM (active) | 0.0377 µM | < 0.001 µM (active) | < 0.001 µM (active) | 0.0231 µM (active) | 0.00222 µM (active) | 0.00361 µM (active) | 0.00163 µM (active) | 0.0024 µM (active) | 0.189 µM (active) | 0.00219 µM (active) | < 0.001 µM (active) | < 0.001 µM (active) | < 0.001 µM (active) | 0.01 µM (active) | 0.00871 µM (active) | < 0.001 µM (active) | 0.0103 µM (active) |
| Cc1nc(O)nc(N/N=C/c2ccc(Cl)c(Cl)c2)c1C(=O)Nc1ccc(Cl)c(Cl)c1 | > 38.6 µM (inactive) | 17.2 µM (inactive) | > 51.8 µM (inactive) | 11.7 µM | 10.8 µM (inactive) | 14.9 µM (inactive) | 5.22 µM (inactive) | 38.5 µM (inactive) | 11.6 µM (inactive) | 28.4 µM (inactive) | 17.1 µM (inactive) | 16.3 µM (inactive) | 12.7 µM (inactive) | 10.6 µM (inactive) | 18.1 µM (inactive) | 9.59 µM (inactive) | 36.3 µM (inactive) | > 24.6 µM (inactive) | 17.6 µM (inactive) | > 42.1 µM (inactive) |
| Clc1cc2ccccc2c2ccccc12 | 82.2 µM (inactive) | 42 µM (inactive) | 41 µM (inactive) | 25.6 µM | > 100 µM (inactive) | 32.4 µM (inactive) | 31.5 µM (inactive) | 69.2 µM (inactive) | 37 µM (inactive) | > 100 µM (inactive) | 33.8 µM (inactive) | > 100 µM (inactive) | 50.2 µM (inactive) | 45.3 µM (inactive) | 86.3 µM (inactive) | 43 µM (inactive) | 30.8 µM (inactive) | 55.2 µM (inactive) | 62.4 µM (inactive) | 97.3 µM (inactive) |
| CN1CCN(CC(=O)Nc2cccc3ccccc23)CC1 | > 100 µM (inactive) | > 100 µM (inactive) | > 100 µM (inactive) | > 100 µM | > 100 µM (inactive) | > 31.6 µM (inactive) | > 100 µM (inactive) | > 100 µM (inactive) | > 100 µM (inactive) | > 100 µM (inactive) | > 100 µM (inactive) | > 100 µM (inactive) | > 100 µM (inactive) | > 100 µM (inactive) | > 100 µM (inactive) | > 100 µM (inactive) | > 100 µM (inactive) | > 100 µM (inactive) | > 100 µM (inactive) | > 100 µM (inactive) |
| CCOC(=O)c1cc(C(O)P2(=O)N(CC(C)(C)C)[C@@H]3CCCC[C@H]3N2CC(C)(C)C)cn1C(=O)OC(C)(C)C (stereo not given in full) | 28.1 µM (inactive) | 14.8 µM (inactive) | 16.2 µM (inactive) | 17.1 µM | 13.7 µM (inactive) | 13.8 µM (inactive) | 16.2 µM (inactive) | 12.8 µM (inactive) | 13.7 µM (inactive) | 20.6 µM (inactive) | 13.8 µM (inactive) | 16.8 µM (inactive) | 15.9 µM (inactive) | 15 µM (inactive) | 13.3 µM (inactive) | 19.5 µM (inactive) | 10.2 µM (inactive) | 14.4 µM (inactive) | 13.7 µM (inactive) | 15.3 µM (inactive) |
| Cc1cc2c(cc1Cl)S(=O)(=O)OC(c1ccc([N+](=O)[O-])cc1)=N2 | > 100 µM (inactive) | > 100 µM (inactive) | > 100 µM (inactive) | > 100 µM | > 100 µM (inactive) | > 100 µM (inactive) | > 100 µM (inactive) | > 100 µM (inactive) | > 100 µM (inactive) | > 100 µM (inactive) | > 100 µM (inactive) | > 100 µM (inactive) | > 100 µM (inactive) | > 100 µM (inactive) | > 100 µM (inactive) | > 100 µM (inactive) | > 100 µM (inactive) | > 100 µM (inactive) | > 100 µM (inactive) | > 100 µM (inactive) |
| O=C(O)CC[P+](c1ccccc1)(c1ccccc1)c1ccccc1 | > 100 µM (inactive) | > 100 µM (inactive) | > 100 µM (inactive) | > 100 µM | 37.2 µM (inactive) | 15.4 µM (inactive) | 23.1 µM (inactive) | 49.1 µM (inactive) | 16.3 µM (inactive) | 53.5 µM (inactive) | 24.5 µM (inactive) | > 100 µM (inactive) | 37.4 µM (inactive) | 79.6 µM (inactive) | 16.9 µM (inactive) | 24.2 µM (inactive) | 50.4 µM (inactive) | 23.2 µM (inactive) | 22.3 µM (inactive) | > 100 µM (inactive) |
| O=C(O)c1cccc(S(=O)(=O)NN2C(=O)CSC2c2c(O)ccc3ccccc23)c1 (stereo not given) | 34.1 µM (inactive) | 25.5 µM (inactive) | 52.6 µM (inactive) | 42.5 µM | 47 µM (inactive) | 29.9 µM (inactive) | 42.2 µM (inactive) | 19 µM (inactive) | 26.5 µM (inactive) | 34.8 µM (inactive) | 27.8 µM (inactive) | 22.1 µM (inactive) | 33 µM (inactive) | 29.3 µM (inactive) | 36.9 µM (inactive) | 26.4 µM (inactive) | 24.9 µM (inactive) | 56.4 µM (inactive) | 27 µM (inactive) | 33.4 µM (inactive) |
| CCOC(=O)c1ccc(Nc2nc3ccc(C(F)(F)F)cc3nc2-c2ccccc2)cc1 | > 100 µM (inactive) | > 100 µM (inactive) | 84.1 µM (inactive) | 15.4 µM | 80 µM (inactive) | 67.9 µM (inactive) | > 100 µM (inactive) | 38.1 µM (inactive) | > 100 µM (inactive) | > 100 µM (inactive) | 47.9 µM (inactive) | > 100 µM (inactive) | 38 µM (inactive) | 56.8 µM (inactive) | 74.8 µM (inactive) | > 100 µM (inactive) | > 100 µM (inactive) | > 100 µM (inactive) | 28.2 µM (inactive) | > 100 µM (inactive) |
| COc1ccccc1-c1c(C#N)c(N)[nH]c(=S)c1C#N | > 100 µM (inactive) | > 100 µM (inactive) | 74.3 µM (inactive) | > 100 µM | > 100 µM (inactive) | 65.6 µM (inactive) | 78.2 µM (inactive) | 11.5 µM (inactive) | 80.4 µM (inactive) | 31.6 µM (inactive) | 23.2 µM (inactive) | > 100 µM (inactive) | 32.1 µM (inactive) | 52.8 µM (inactive) | 25.4 µM (inactive) | > 100 µM (inactive) | 46.5 µM (inactive) | > 100 µM (inactive) | 55.1 µM (inactive) | 93.1 µM (inactive) |
| O=C(CCc1ccccc1)NCCc1ccc(O)c(O)c1 | 14.2 µM (inactive) | 4.99 µM (inactive) | 53.5 µM (inactive) | 31.3 µM | > 40.6 µM (inactive) | 39.7 µM (inactive) | > 54.8 µM (inactive) | 3.89 µM (inactive) | 45.3 µM (inactive) | 21.2 µM (inactive) | 5.26 µM (inactive) | 28.4 µM (inactive) | > 42.1 µM (inactive) | > 53.3 µM (inactive) | 36 µM (inactive) | 48.9 µM (inactive) | 4.01 µM (inactive) | 44.6 µM (inactive) | 34.3 µM (inactive) | 4.57 µM (inactive) |
